# “And” between values parts separate entries of the source, which are not always exact repeats. Equal values may be shown once.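 96-well plates; 48 h exposure; 5 concentrations. Endpoints by linear interpolation between flanking doses. Not reached: highest tested concentration assigned. The concentration for 50% growth inhibition is given as GI50. TGI denotes the concentration required for complete inhibition of growth.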
# Columns and labels:
# Test in all cases: NCI tumour cell line growth inhibition, 48 h
# NCI/ADR-RES ovarian = system: NCI/ADR-RES ovarian
# HOP-62 NSCLC = system: HOP-62 NSCLC
# ACHN renal = system: ACHN renal
# OVCAR-8 ovarian = system: OVCAR-8 ovarian
# HL-60(TB) leukemia = system: HL-60(TB) leukemia
# HOP-92 NSCLC = system: HOP-92 NSCLC
# K-562 leukemia = system: K-562 leukemia
# HCT-15 colon = system: HCT-15 colon
# RPMI-8226 leukemia = system: RPMI-8226 leukemia
# HS 578T breast = system: HS 578T breast
Compound,GI50 (NCI/ADR-RES ovarian),TGI (NCI/ADR-RES ovarian),GI50 (HOP-62 NSCLC),TGI (HOP-62 NSCLC),GI50 (ACHN renal),TGI (ACHN renal),GI50 (OVCAR-8 ovarian),TGI (OVCAR-8 ovarian),GI50 (HL-60(TB) leukemia),TGI (HL-60(TB) leukemia),GI50 (HOP-92 NSCLC),TGI (HOP-92 NSCLC),GI50 (K-562 leukemia),TGI (K-562 leukemia),GI50 (HCT-15 colon),TGI (HCT-15 colon),GI50 (RPMI-8226 leukemia),TGI (RPMI-8226 leukemia),GI50 (HS 578T breast),TGI (HS 578T breast)
COc1ccc(S(=O)(=O)N2CCNCC2)cc1OC,> 100 µM,> 100 µM,> 100 µM,> 100 µM,> 100 µM,> 100 µM,> 100 µM,> 100 µM,> 100 µM,> 100 µM,> 100 µM,> 100 µM,> 100 µM,> 100 µM,> 100 µM,> 100 µM,> 100 µM,> 100 µM,> 100 µM,> 100 µM
N#Cc1cc2c(cc1Cl)Sc1nnc(Nc3cccc4ccccc34)n1S2(=O)=O,2.11 µM,4.4 µM,15.6 µM,29.6 µM,6.34 µM,19.2 µM,30.2 µM,> 100 µM,2.75 µM,20.2 µM,14.7 µM,30.1 µM,4.08 µM,> 100 µM,4.74 µM,24.4 µM,2.66 µM,7.77 µM,2.89 µM,9.74 µM
COc1ccc(OC)c(Cc2cnc3nc(N)nc(N)c3c2C)c1,–,> 100 µM,–,17.3 µM,–,20.1 µM,–,27.8 µM,–,18.7 µM,–,39.6 µM,–,14.9 µM,–,11.4 µM,–,15.8 µM,–,49.7 µM
[Cl][Cu][Cl],> 10 µM,> 10 µM,> 10 µM,> 10 µM,> 10 µM,> 10 µM,> 10 µM,> 10 µM,> 10 µM,> 10 µM,> 10 µM,> 10 µM,> 10 µM,> 10 µM,> 10 µM,> 10 µM,> 10 µM,> 10 µM,> 10 µM,> 10 µM
O=[N+]([O-])c1cc(Cc2cc([N+](=O)[O-])c3cccnc3c2O)c(O)c2ncccc12,–,54.1 µM,–,42.4 µM,–,41.3 µM,–,> 42.9 µM,–,5.35 µM,–,37.1 µM,–,> 100 µM,–,66.4 µM,–,41.4 µM,–,52.1 µM
CC(C)N(Cc1ccc(F)cc1)c1ccc(CO)c(Cl)c1,10.4 µM,23.8 µM,1.14 µM,17.6 µM,8.08 µM,20.9 µM,10.6 µM,25 µM,3.15 µM,21.8 µM,0.205 µM,4.22 µM,0.468 µM,12.9 µM,5.23 µM,20.7 µM,1.46 µM,20.1 µM,14.8 µM,37.8 µM
NC(=O)CC(N)c1nn[nH]n1 (stereo not drawn),–,> 100 µM,–,> 100 µM,–,> 100 µM,–,> 100 µM,–,> 100 µM,–,> 100 µM,–,> 100 µM,–,> 100 µM,–,> 100 µM,–,> 100 µM
COc1c(OC(C)C)cc2cc(O)c(C(=O)NC3Cc4ccc(c(Cl)n4)O[C@@H]4C=C5C#C/C(=C\C#CC6OC56C4OC4CC(C)(O)C(O)C(C)O4)C(OC4CC(O)C(N(C)C)C(C)O4)COC3=O)cc2c1OC (stereo partly drawn),–,> 36.3 µM,10.3 µM and 0.402 µg/mL,> 36.3 µM and 1.74 µg/mL,9.33 µM and 0.303 µg/mL,> 36.3 µM and 5.69 µg/mL,26.7 µM and 1.18 µg/mL,> 36.3 µM and 37.5 µg/mL,27.5 µM and 0.019 µg/mL,> 36.3 µM and 0.336 µg/mL,0.482 µg/mL,> 36.3 µM and 2.94 µg/mL,> 36.3 µM and 0.823 µg/mL,> 36.3 µM and 37.5 µg/mL,> 36.3 µM and 9.57 µg/mL,> 36.3 µM and 37.5 µg/mL,0.348 µg/mL,3.67 µg/mL,–,> 36.3 µM
O=c1[nH]c2ccccc2n1C1CCN(CCCC(c2ccc(F)cc2)c2ccc(F)cc2)CC1,1.46 µM and 3.2 µM,2.96 µM and 13.2 µM,1.53 µM,2.89 µM and 22.3 µM,1.66 µM and 10.9 µM,3.16 µM and 24.7 µM,1.58 µM and 9.14 µM,3.28 µM and 24.3 µM,1.82 µM,4.4 µM and 11.9 µM,0.252 µM,1.71 µM and 14 µM,1.88 µM,4.54 µM and 17.4 µM,1.77 µM,3.95 µM and 19.7 µM,2.06 µM and 3.96 µM,8.97 µM and 20.4 µM,1.83 µM and 7.71 µM,4.47 µM and 24.8 µM
N#Cc1cccc(Nc2ncc(-c3ccccc3)o2)c1,19.2 µM,> 25 µM,6.69 µM,> 17.8 µM,8.4 µM,> 25 µM,16.7 µM,> 25 µM,11 µM,> 25 µM,7.32 µM,> 25 µM,> 25 µM,> 25 µM,16.8 µM,> 25 µM,> 25 µM,> 25 µM,8.52 µM,> 25 µM
CCOC(=O)C(Cc1ccc(N(CCCl)CCCl)cc1)NC(=O)C(Cc1ccccc1)NC(C)=O (stereo not drawn),–,> 0.618 µM,–,> 0.431 µM,–,0.309 µM,–,> 1 µM,–,> 0.264 µM,–,> 1 µM,–,> 0.502 µM,–,> 1 µM,–,0.211 µM,–,> 1 µM
c1ccc(C2CCCCC2)c(OCCCCCN2CCNCC2)c1,7.07 µM,29.2 µM,10.4 µM,28.5 µM,3.45 µM,13.2 µM,13.4 µM,43 µM,1.72 µM,3.94 µM,4.44 µM,23 µM,0.313 µM,1.7 µM,1.83 µM,4.05 µM,1.69 µM,4.75 µM,3.61 µM,22.1 µM
Cn1c(C(=O)c2cccc3ccccc23)nc2ccccc21,> 100 µM,> 100 µM,> 100 µM,> 100 µM,> 100 µM,> 100 µM,> 100 µM,> 100 µM,> 100 µM,> 100 µM,35.9 µM,> 100 µM,> 100 µM,> 100 µM,> 100 µM,> 100 µM,> 100 µM,> 100 µM,> 100 µM,> 100 µM
CN1CCCC1c1cccnc1.O=C(O)c1ccccc1O.O=C([O-])c1ccccc1[OH2+].O=C([O-])c1ccccc1[OH2+].[Mn+2] (stereo not drawn),> 100 µM,> 100 µM,> 100 µM,> 100 µM,> 100 µM,> 100 µM,> 100 µM,> 100 µM,> 100 µM,> 100 µM,> 100 µM,> 100 µM,> 100 µM,> 100 µM,> 100 µM,> 100 µM,77.9 µM,> 100 µM,> 100 µM,> 100 µM

# Reference: PubChem BioAssay (NCI)
